Columns and labels:
human monocytes [1] = assay: Stimulation of monocyte cells: Interleukine-1 (IL-1) test on culture supernatants; format: cell-based; details: for direct effect on human monocytes, production of an IL-1 activity in the culture supernatants: with 5 g of product
Description: (§1) The mononucleus cells of the circulating blood of normal donors were separated according to the standard technique described by Boyum using a Ficoll gradient. After washing, the mononuclear cells were incubated at 37° C. for one hour at the rate of 5.10^6 monocytes (NSE^+ cells) per ml of culture medium using 5 ml per culture flask. The culture medium used in this experiment was made up of RPMI 1640 with the addition of antibiotics and Hepes buffer. After one hour, the non-adherent cells were removed by washing the flasks with medium previously heated to 37° C. and the adherent cells composed mostly of monocytes (>90%) were put back in culture in complete RPMI medium without serum in the presence of various quantities of products under test, which had previously been put in solution in a buffer (Dulbecco) without Ca^2+ or Mg^2+. The culture was continued for 24 or 48 hours and the supernatants of the cells were then removed, centrifuged, separated into equal lots and held either at -80° C. or at -20° C. The supernatants of the culture were replaced in the flasks by the same amount of apyrogenous distilled water to dissolve the cells. The lysate was recovered, separated into equal lots and also kept at -20° C.
This test was described for the first time by Gery et al in 1972 [Gery et al 1972. Potentiation of the T lymphocyte response to mitogens. II. The cellular source of potentiating mediator (s) J. Exp. Med., 136-143]. It is based on the co-mitogen action of IL-1 in the presence of an antigen (mimicked by phytohemaglutinine in the test) on the thymocytes of mice. 1.5×10^6 thymocytes of mice C3H/HeJ (from the C.S.E.A.L. of Orleans) were put in culture for three days in the presence of various dilutions of supernatants and of cell lysates which may contain IL-1 activity and of PHA-P Wellcome (1 ug/ml) in culture plates with 96 flat bottomed wells, in a final volume of 200 ul of medium composed of RPMI 1640 containing in addition to antibiotics (penicillin 1 U/ml - streptomycin 1000 U/ml) of Hepes buffer, 1 mM of glutamine, 2 mM 5% of calf serum and […] of 2-mercapto ethanol. After 68 hours of culture, 1 μCi of tritiated thymidine was added to each well (^3 H-methyl thymidine, CEA Saclay, TMM79A specific activity 1 Ci/mM=37 GBq/mM) and the radioactivity incorporated by the cells was evaluated after the cultures had been filtered on Skatron type semi-automatic collecting apparatus and the filters had been counted in a liquid scintillation counter (Beckman). The results were expressed by the difference between the impulses per minute incorporated by the cultures in the presence of supernatants and the impulses per minute incorporated by the control cultures.

human monocytes [2] = assay: Stimulation of monocyte cells: Tumor Necrosis Factor (TNF) test on culture supernatants; format: cell-based; details: for direct effect on human monocytes, production of a TNF activity in the culture supernatants: with 5 g of product
Description: as §1
The TNF activity is shown by the toxicity of this factor on the L-929 target cells (sub-clone alpha) and the technique was sensitized by adding D actinomycin in the test. The L cells were distributed at a rate of 2×10^4 cells per well of a flat-bottomed microplate in 100 μl of RPMI 1640 medium enriched with 5% of calf serum, glutamine, Hepes buffer and antibiotics. After 24 hours, various dilutions of the supernatants under test were added in a volume of 100 μl, as well as a dose of D actinomycin of 1 μg/ml. After 24 hours of culture, the quantity of undissolved cells was evaluated by coloring the plates with crystal violet and measuring the optical density of the different wells on a multiscan reader. RESULTS: The product of Example 9 stimulated the monocytes and their production of IL-1 and TNF. Furthermore, there was synergy between the products and the gamma Interferon.

[3] = system: Salmonella typhimurium MZ11; assay: Antibacterial activity in vitro, agar diffusion in Davis Mingioli medium; format: cell-based; details: Salmonella enterica, product at 25 mg/l, 24 hours at 37° C., read-out: inhibition zones observed (diameter in mm)
Description: (§2) The antibacterial activity of the products was determined by the method of diffusion in a Davis Mingioli medium with 1% of agar added to it. The agars used were poured into Petri dishes at 48° C., after inoculating with […] with the bacterial strain under test. The inocula came from a culture made 24 hours earlier in a Davis Mingioli broth. After the agars had hardened, the aqueous solutions of the products being studied were introduced into wells (9 mm) hollowed in the medium with a punch. The inhibition zones observed (diameter in mm) were measured after incubation for 24 hours at 37° C.

[4] = system: Enterobacter cloacae 1321E; assay: as above; format: cell-based; details: product at 25 mg/l, 24 hours at 37° C., read-out: inhibition zones observed (diameter in mm)
Description: as §2

Strain IP 52 145 = assay: Antibacterial activity in vivo, protection of infected mice; parameters: species or system Swiss female mice; details: 5 mg/kg intramuscular 24 hours before intravenous infection with strain IP 52 145
Description: Swiss female mice weighing from 18 to 20 g (Charles River Cobs noninbred CDl) were used for this experiment with each group comprising 20 animals. The various products were put in solution in apyrogenous physiological serum to obtain concentrations of 1-10-100 mcg/mouse or: 50-500-5000 mcg/kg.
The lyophilized strain was re-hydrated with a few drops of soja trypcase broth (BioMerieux) and a tube of 10 ml of soja trypcase broth was inoculated with the suspension obtained and cultivated for 18 hours in an incubator at 37° C. Tubes of preserving agar (Pasteur) were inoculated with this culture by central stabing. After 18 hours of culture in an incubator at 37° C., the tubes were kept at 22° C.
A tube of soja trypcase broth was inoculated from a preserving agar and cultivated for 18 hours in an incubator at 37° C. Inclined soja trypcase agars were inoculated from this culture. […] The germ concentration was evaluated by counting with a Coulter Counter. […] The quantity of revivable germs injected was checked by spreading on Petri dishes containing trypcase agar.
Administration was done with an intramuscular injection in a volume of 0.05 ml/mouse 24 hours before infection. […] Where a clear increase in survival could not be detected after 21 days of observation, an average survival time (AST) was calculated for each group. […]

Providencia sp. DU48 = assay: Antibacterial activity in vitro, agar diffusion in Davis Mingioli medium; format: cell-based; details: product at 25 mg/l, 24 hours at 37° C., read-out: inhibition zones observed (diameter in mm)
Description: as §2

Escherichia Coli 078 = assay: as above; format: cell-based; details: COLI078, product at 25 mg/l, 24 hours at 37° C., read-out: inhibition zones observed (diameter in mm)
Description: as §2

[5] = human blood monocytes, culture 24 or 48 hours
[6] = in the presence of gamma Interferon (10^3 U/ml; CHU--IFN--g)

NC(CC=CCC(=O)O)C(=O)O (centres unmarked) [Example 5, 6-amino-3-heptenedioic acid]
direct effect on human monocytes, production of an IL-1 activity in the culture supernatants (human monocytes [1]): showed a direct effect
direct effect on human monocytes, production of a TNF activity in the culture supernatants (human monocytes [2]): showed a direct effect

C[C@H](N)C(=O)NC(CC=CCC(=O)O)C(=O)O (stereo partly drawn) [Example 6, 6-(L-alanylamino)-3-heptenedioic acid]
zone of inhibition at 25 µg/mL [3]: 24 mm
zone of inhibition at 25 µg/mL [4]: 10 mm

CCCCCCCCCCCCCCCCCC(=O)N[C@@H](C)C(=O)N[C@H](CCC(=O)NC(CC=CCC(=O)[O-])C(=O)[O-])C(=O)O.[Na+].[Na+] (some centres unmarked) [Example 8]
protection, expressed in AST (average survival time) or in survival at the end of 21 days of observation (Strain IP 52 145): particularly significant protection

NCCCC[C@H](N)C(=O)NC(CC=CCC(=O)O)C(=O)O (stereo partly drawn) [Example 9, 6-(L-lysylamino)-3-heptenedioic acid]
stimulation of the monocytes and their production of IL-1 (human monocytes [1]; [5]): stimulated
production of monokines (IL-1) in the presence of gamma Interferon (human monocytes [1]; [6]): at least increased the production
direct effect on human monocytes, production of an IL-1 activity in the culture supernatants (human monocytes [1]): showed a direct effect
stimulation of the monocytes and their production of TNF (human monocytes [2]; [5]): stimulated
production of monokines (TNF) in the presence of gamma Interferon (human monocytes [2]; [6]): at least increased the production
direct effect on human monocytes, production of a TNF activity in the culture supernatants (human monocytes [2]): showed a direct effect

C[C@H](N)C(=O)NC(C=CCCC(=O)O)C(=O)O (stereo partly drawn) [Example 13, 2-(L-alanylamino)-3-heptenedioic acid]
zone of inhibition at 25 µg/mL (Providencia sp. DU48): 22 mm
zone of inhibition at 25 µg/mL [3]: 20 mm
zone of inhibition at 25 µg/mL (Escherichia Coli 078): 17.5 mm

Reference: patent US5030715A, “Novel aminopimelic acids” (Roussel Uclaf, priority 1987, dated 1991)
